Patent US20250340543A1, “GPR84 ANTAGONISTS AND USES THEREOF” (Liminal BioSciences Limited, priority 2021, published 2025)

Molecular target: GPR84 (Homo sapiens (Human), UniProt Q9NQS5)
Assay: Gai biosensor BRET assay (GPR84-mediated activation of Gai, antagonist mode against agonist ZQ-16)
Type: cell-based
Conditions: for inhibition at 10 µM: compound tested at 10 μM (concentration code D); for inhibition at 25 µM: compound tested at 25 μM (concentration code G); for IC50: HEK293 cells, 200 nmol/L GPR84 agonist ZQ-16, read-out: hGPR84 IC50; for inhibition at 2 µM: compound tested at 2 μM (concentration code A)
Excerpt: Background—The following assays can be used for determination of GPR84 activation in living HEK293 cells. […] The Gai biosensor consists of a Rluc8-tagged Gαi2 subunit, a GFP10-tagged Gγ2 subunit, and an untagged Gβ1. […] Moreover, signaling functions of GPCRs are tightly regulated by endocytosis, the targeting of receptors to endosomes and their sorting to lysosomes or recycling to the plasma membrane. […] Agonist stimulation of GPR84—Rluc8 leads to trafficking of the receptor to EEs, and ensuing increase of the donor concentration relative to the rGFP-FYVE acceptor anchored in the same cellular compartment, and thus results in an increase in BRET signal.
Plasmids—The cDNA clones for human GPR84 receptor, human Gαi2, Gβ1, and Gγ2 were obtained from the cDNA Resource Center (www.cdna.org). GFP10 (F64L, S147P, S202F and H231L variant of Aequorea victoria Green Fluorescent Protein) gBlocks gene fragments (Integrated DNA Technologies, IA) and linker were inserted in frame at the N-terminus of human Gγ2. Rluc8 (A55T, C124A, S130A, K136R, A143M, M185V, M253L, and S287L variant of the Renilla renformis luciferase) gBlocks gene fragment was inserted with linkers in frame in between residues 91 and 92 of Gαi2 or at the C-terminus of GPR84. The FYVE domain from human endofin (residues Q739 to K806) attached in frame at the C terminus of a humanized Renilla GFP (rGFP), were synthesized as gBlocks gene fragments.
Bioluminescence Resonance Energy Transfer (BRET) Measurement—HEK293 cells were transfected with GPR84—Rluc8 and rGFP-FYVE for the EEs trafficking biosensor or with GPR84, Gαi2—Rluc8, GFP10-Gγ2, and Gβ1 for the Gai biosensor. The following day, transiently transfected cells were seeded in 96-well white clear bottom microplates coated with poly-D-lysine and left in culture for 24 hours. Cells were washed once with Tyrode's buffer (140 mmol/L NaCl, 1 mmol/L CaCl2, 2.7 mmol/L KCl, 0.49 mmol/L MgCl2, 0.37 mmol/L NaH2PO4, 5.6 mmol/L glucose, 12 mmol/L NaHCO3, and 25 mmol/L HEPES, pH 7.5) before performing assays in Tyrode's buffer. Test compounds were incubated with cells for 5 (Gai) or 15 (EEs) minutes at 37° C. before addition of 200 nmol/L of the GPR84 agonist ZQ-16 (2-(Hexylthio)-6-hydroxy-4(3H)-pyrimidinone) for 5 minutes at room temperature (Gai) or 30 minutes at 37° C. (EEs). The Rluc8 substrate coelenterazine 400A (Prolume, Lakeside, AZ) was added at a final concentration of […] and BRET readings were collected using an Infinite M1000 microplate reader (Tecan, Morrisville, NC). BRET^2 readings between Rluc8 and GFP10 or rGFP were collected by sequential integration of the signals detected in the 370 to 450 nm (Rluc8) and 510 to 540 nm (GFP10, rGFP) windows. The BRET signal was calculated as the ratio of light emitted by acceptor (GFP10, rGFP) over the light emitted by donor (Rluc8). The values were corrected to net BRET by subtracting the background BRET signal obtained in cells transfected with Rluc8 constructs alone. Ligand-promoted net BRET values were calculated by subtracting vehicle-induced net BRET from ligand-induced net BRET.

Sequence of GPR84 (Q9NQS5 whole entry): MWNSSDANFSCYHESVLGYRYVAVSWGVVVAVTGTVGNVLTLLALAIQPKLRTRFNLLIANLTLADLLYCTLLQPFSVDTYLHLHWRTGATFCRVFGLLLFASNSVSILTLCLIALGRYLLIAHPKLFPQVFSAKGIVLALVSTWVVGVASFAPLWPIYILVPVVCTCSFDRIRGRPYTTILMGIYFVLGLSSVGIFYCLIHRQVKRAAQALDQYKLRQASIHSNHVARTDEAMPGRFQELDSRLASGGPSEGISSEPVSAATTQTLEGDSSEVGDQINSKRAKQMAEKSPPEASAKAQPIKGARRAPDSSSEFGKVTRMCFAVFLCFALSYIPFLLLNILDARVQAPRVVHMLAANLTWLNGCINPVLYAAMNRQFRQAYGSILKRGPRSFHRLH

Row | Structure (SMILES) | inhibition at 10 µM | also measured
1 | Cc1cc(OCc2cccnc2Cl)cc(=O)n1[C@H](C)c1ccc(C#CC2CC2)cc1 [Compound I-305] | > 75% | –
2 | Cc1cc(OCC2COCCO2)cc(=O)n1Cc1cccc(OCc2ccccn2)c1 (stereo not shown) [Compound I-63] | – | inhibition at 25 µM: < 25%
3 | Cc1cc(OCC2COc3ncccc3O2)cc(=O)n1C(C)c1ccc(C#CC2CC2)cc1 (stereo not shown) [Compound I-106] | > 75% | –
4 | Cc1cc(OCc2cnnn2C)cc(=O)n1[C@H](C)c1ccc(C#CC2CC2)cc1 [Compound I-359] | > 75% | IC50: < 5 µM
5 | FC(F)(F)COc1ccc(-c2cccc(OCC3CCCCO3)n2)cc1 (stereo not shown) [Compound I-129] | – | inhibition at 25 µM: < 25%
6 | Cc1cc(OC[C@H]2COCCO2)cc(=O)n1[C@H](C)c1ccc(C#CC2CC2)cc1 (stereo in doubt) [Compound I-7] | > 75% | IC50: < 5 µM
7 | Cc1cc(OCc2ncccn2)cc(=O)n1[C@H](C)c1ccc(-c2ccccc2)cc1 [Compound I-344] | < 25% | –
8 | COc1cc(OCC2COc3ncccc3O2)cc(-c2ccc(-c3ccc(C)nc3)cc2C)n1 (stereo not shown) [Compound I-57] | – | inhibition at 2 µM: 25 to 50%
9 | Cc1cc(OCc2ncccn2)cc(=O)n1[C@H](C)c1ccc(C#CC(C)C)cc1 [Compound I-298] | 50 to 75% | –
10 | Cc1cc(OCc2ncccn2)cc(=O)n1C(C)c1ccc(OCC(F)(F)F)cc1 (stereo not shown) [Compound I-275] | < 25% | –
11 | Cc1cc(OCC2COCCO2)nc(OCc2ccc(C#CC3CC3)cc2)n1 (stereo not shown) [Compound I-85] | – | inhibition at 15 µM (compound tested at 15 μM (concentration code F)): < 25%
12 | Cc1cc(OCc2ncccn2)cc(=O)n1[C@H](C)c1ccc(Cl)cc1 [Compound I-304] | < 25% | –
13 | Clc1cc(OCC2COCCO2)cc(-c2ccc(OCc3ccccn3)cc2)n1 (stereo not shown) [Compound I-107] | – | inhibition at 12.5 µM (compound tested at 12.5 μM (concentration code E)): < 25%
14 | CC(c1cc(C#CC2CC2)ccn1)n1ccc(OC[C@@H]2COCCO2)cc1=O (stereo partly shown) [Compound I-286] | < 25% | –
15 | Cc1cc(OCc2ccn(C)n2)cc(=O)n1[C@H](C)c1ccc(C#CC2CC2)cc1 [Compound I-350] | > 75% | –
16 | Cc1cc(OC[C@@H]2CCCCO2)cc(=O)n1[C@H](C)c1ccc(C#CC2CC2)cc1 (stereo in doubt) [Compound I-144] | > 75% | –
17 | Cc1cc(OCc2ncccn2)cc(=O)n1[C@H](C)c1ccc(CCC2CC2)cc1 [Compound I-310] | 25 to 50% | –
18 | O=C(CC1CCCCO1)N1CCc2cc(C#CC3CC3)ccc2C1 (stereo not shown) [Compound I-187] | 25 to 50% | –
19 | Cc1cc(OCc2ncccn2)cc(=O)n1Cc1cc(C#CC2CC2)ccn1 [Compound I-266] | < 25% | –

Row | Structure (SMILES) | inhibition at 10 µM | also measured
20 | CC(=O)N1CCN(c2cc(OCC3COCCO3)nc(=O)n2C)CC1 (stereo not shown) [Compound I-138] | – | inhibition at 25 µM: < 25%
21 | CN1CCN(c2cc(OCC3COCCO3)nc(=O)n2C)CC1 (stereo not shown) [Compound I-137] | – | inhibition at 25 µM: < 25%
22 | Cc1cc(OCc2ncccn2)cc(=O)n1C(CC(F)(F)F)c1ccc(C#CC2CC2)cc1 (stereo not shown) [Compound I-324] | > 75% | IC50: < 5 µM
23 | CC(c1ccc(C#CC2CC2)cn1)n1ccc(OCc2ncccn2)cc1=O (stereo not shown) [Compound I-249] | 25 to 50% | –
24 | Cc1nc(OCC2COCCO2)cc(=O)n1Cc1ccc(C#CC2CC2)cc1 (stereo not shown) [Compound I-34] | – | inhibition at 25 µM: 25 to 50%
25 | Cc1cc(C#CC2CC2)ccc1-c1cc(OCC2COCCO2)cc(Cl)n1 (stereo not shown) [Compound I-108] | – | inhibition at 25 µM: < 25%
26 | COc1cccnc1COc1cc(C)n([C@H](C)c2ccc(C#CC3CC3)cc2)c(=O)c1 [Compound I-318] | > 75% | IC50: < 5 µM
27 | Cc1cc(OCC2COCCO2)cc(=O)n1C(C)c1ccc(OCC(F)(F)F)cc1 (stereo not shown) [Compound I-99] | < 25% | –
28 | Cc1cc(OCc2ncccn2)cc(=O)n1C(C)c1cccc(C#CC2CC2)c1 (stereo not shown) [Compound I-261] | < 25% | –
29 | O=c1ncc(-c2ccc(C#CC3CC3)cc2)cn1C[C@H]1CCCCO1 (stereo in doubt) [Compound I-80, 5-(4-(cyclopropylethynyl)phenyl)-1-((tetrahydro-2H-pyran-2-yl)methyl)pyrimidin-2(1H)-one] | – | inhibition at 25 µM: < 25%
30 | COc1cnc(COc2cc(C)n([C@H](C)c3ccc(C#CC4CC4)cc3)c(=O)c2)nc1 [Compound I-247] | > 75% | –
31 | Cc1cc(OC[C@@H]2COCCO2)cc(=O)n1Cc1cc(C#CC2CC2)ccn1 [Compound I-231] | < 25% | –
32 | COc1cc(NC(=O)C2CCCCO2)cc(-c2ccc(C#CC3CC3)cc2)n1 (stereo not shown) [Compound I-75] | – | inhibition at 25 µM: < 25%
33 | CNC(=O)c1ccc([C@@H](C)n2c(C)cc(OCc3ncccn3)cc2=O)cc1 [Compound I-316] | < 25% | –
34 | CC[C@H](c1ccc(C#CC2CC2)cc1)n1c(C)cc(OCc2ncccn2)cc1=O [Compound I-317] | > 75% | –
35 | C#Cc1ccc(C(C)n2c(C)cc(OCc3ncccn3)cc2=O)cc1 (stereo not shown) [Compound I-353] | < 25% | –
36 | Cc1cc(OCC2COCCO2)cc(=O)n1Cc1ccc(C#CC2CC2)cc1 (stereo not shown) [Compound I-35] | – | IC50: < 5 µM; inhibition at 25 µM: 25 to 50%
37 | Cc1cc(OCc2ncccn2)cc(=O)n1C(C)c1ccc2cc(C3CC3)ccc2c1 (stereo not shown) [Compound I-354] | – | inhibition at 2 µM: < 25%
38 | Cc1cc(OCc2ncccn2)cc(=O)n1Cc1cccc(OCC(F)(F)F)c1 [Compound I-262] | < 25% | –

Row | Structure (SMILES) | inhibition at 10 µM | also measured
39 | Cc1cc(OCC2COCCO2)cc(=O)n1[C@H](C)c1ccc(C#CCNS(=O)(=O)C2CC2)cc1 (stereo partly shown) [Compound I-149] | < 25% | –
40 | Cc1cc(OCc2ncccn2)cc(=O)n1Cc1cccc(C#CC2CC2)c1 [Compound I-267] | < 25% | –
41 | CC(C)c1cc(OCC2COCCO2)cc(OCc2ccc(C#CC3CC3)cc2)n1 (stereo not shown) [Compound I-55] | – | inhibition at 25 µM: < 25%
42 | COc1ccc([C@@H](C)n2c(C)cc(OCc3ncccn3)cc2=O)cc1 [Compound I-301] | < 25% | –
43 | Cc1cc(OCc2ncccn2)cc(=O)n1[C@@H](C)Cc1ccc(C#CC2CC2)cc1 (stereo in doubt) [Compound I-277] | < 25% | –
44 | C(#CC1CC1)c1ccc(-c2ccnc(OCC3CCCCO3)n2)cc1 (stereo not shown) [Compound I-128] | – | inhibition at 25 µM: < 25%
45 | Cc1cc(OCc2ncccn2)cc(=O)n1[C@H](C)Cc1ccc(C#CC2CC2)cc1 (stereo in doubt) [Compound I-276] | > 75% | –
46 | CC1(C)CN(c2cccc(Cn3ccc(OCc4ncccn4)cc3=O)c2)C1 [Compound I-248] | 25 to 50% | –
47 | CCCCCc1ccc([C@@H](C)n2c(C)cc(OCc3ncccn3)cc2=O)cc1 [Compound I-309] | < 25% | –
48 | COc1ccc(CN2CCN(c3cc(OCC4COCCO4)nc(=O)n3C)CC2)cc1 (stereo not shown) [Compound I-81] | – | inhibition at 25 µM: < 25%
49 | O=C(CC1CCOCC1)N1Cc2ccc(C#CC3CC3)cc2C1 [Compound I-180] | – | IC50: > 25 µM; inhibition at 25 µM: 50 to 75%
50 | Cc1cc(OCc2ncccn2)cc(=O)n1Cc1ccc(N2CC(C)(C)C2)cc1 [Compound I-242] | < 25% | –
51 | Cc1cc(OC[C@H]2COCCO2)cc(=O)n1Cc1ccc(N2CC(C)(C)C2)cc1 [Compound I-116] | < 25% | –
52 | Cc1cc(OCc2ncccn2)cc(=O)n1Cc1cc(C#CC2CC2)ccc1F [Compound I-268] | < 25% | –
53 | FC(F)(F)COc1ccc(-c2c(OCC3COCCO3)ncc3c2OCCO3)cc1 (stereo not shown) [Compound I-159] | – | inhibition at 25 µM: < 25%
54 | Cc1cc(OCC2COCCO2)cc(=O)n1C(C)c1ccc(C#CC(C)(C)C)cc1 (stereo not shown) [Compound I-68] | < 25% | –
55 | Cc1cc(OCc2ncccn2)cc(=O)n1[C@H](C)c1ccc(C#CC2CC2)cc1F [Compound I-270] | < 25% | –
56 | Cc1cc(OCc2ncccn2)cc(=O)n1C(C)c1ccc(C#CC2CC2)s1 (stereo not shown) [Compound I-292] | 25 to 50% | –
57 | Cc1cc(OCc2cncnc2)cc(=O)n1[C@H](C)c1ccc(C#CC2CC2)cc1 [Compound I-283] | – | IC50: < 5 µM; inhibition at 2 µM: > 75%
